Read-outs that look alike come from different tables or passages of the source.
Experiments:
L929 cells = test: Inhibition of TNF-induced programmed necrosis of L929 cells (Cell Titer-Glo viability); assay type: cell-based, mouse; conditions: for EC50: Mus musculus, L929, L929 cells
How it was run: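 Mouse L929 fibroblasts were diluted to 6.25×10^4/ml, plated at 40 μl per well in 384-well plates, and incubated 12 hours at 37° C., 5% CO2. Compounds were added, with SM164 (500 nM) for the combination arm, and pretreated 1 h before TNFα (500 ng/mL). After 14 h, viability was read by Cell Titer-Glo luminescence against unstimulated DMSO controls, and EC50 values were fitted in Prism Graphpad.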

FADD−/− Jurkat cells = test: Inhibition of TNF-induced programmed necrosis of FADD deficient Jurkat cells (Cell Titer-Glo viability); assay type: cell-based; conditions: for EC50: Homo sapiens, Jurkat, FADD−/− Jurkat cells; for activity of inhibition of programmed necrosis compared with GSK2982772: human FADD-deficient Jurkat cells, TNFα alone or in combination with SM164
How it was run: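 FADD-deficient human Jurkat T leukemia cells in log phase were adjusted to 2.5×10^5/mL and plated at 40 μl per well in 384-well plates. Compounds were added, with SM164 (50 nM) where used, for a 1 h pretreatment at 37° C. TNFα (50 ng/mL) was then added, and cells were incubated 14 h at 37° C, 5% CO2. Viability was read as ATP luminescence with Cell Titer-Glo after 30 min at room temperature, with unstimulated DMSO wells set as 100%. EC50 values were calculated in Prism Graphpad.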

[1] = test system: MEFs cells expressing RIPK1 S161E mutant; test: TSZ-induced programmed necrosis in MEFs cells expressing RIPK1 S161E mutant; assay type: cell-based, mouse; conditions: 600 nM
Text: (§1) The adopted biological test protocol was: the effect of compounds on programmed necrosis in MEFs cells (mouse embryonic fibroblasts) with RIPK1 S161E mutation.
(§2) In order to verify the inhibitory effect of the compound of the present invention on the highly activated RIPK1 kinase at the cellular level, MEFs cells stably expressing RIPK1 S161E (simulating the activation state of RIPK1 after phosphorylation) were selected, TNFα-SM164-zVAD (Caspase inhibitor for inhibiting apoptosis) (TSZ) was used in combination to induce programmed cell necrosis, and cell viability was calculated by detecting chemiluminescence values, thereby obtaining the biological activity of the compound in inhibiting programmed necrosis.
(§3) Methods: MEFs cells replenished by RIPK1: WT-RIPK1, S161A-RIPK1 and S161E-RIPK1 were replenished in RIPK1 stable knockout cells respectively. After stable expression and being cultured to logarithmic growth phase, the cells were collected, and centrifuged at 1000 rpm for 5 min. The supernatant was discarded. Cell concentration was adjusted to 5×10^4/mL, and cells were inoculated into 384-well plates with 40 μL per well. Cell culture medium diluted SM164 (100 nM), zVAD (50 μM) and compound, each […], were added to the corresponding wells. After pretreatment at 37° C. for 1 h, 5 μL of cell culture medium diluted TNF (50 ng/mL) was added to each well in the stimulated group and 5 μL of culture medium was added to the control group. […] The unstimulated DMSO control wells (Ctrl) were taken as 100% cell viability. EC50 values of the compounds were calculated using Prism Graphpad statistical software.

[2] = test system: MEFs cells expressing RIPK1 WT; test: TSZ-induced programmed necrosis in MEFs cells expressing RIPK1 WT; assay type: cell-based, mouse; conditions: 600 nM
Text: as §1, §2, §3

[3] = test system: RIPK1^K612R/K612R mutant mice; test: Digestive system inflammation in RIPK1 K612R/K612R mutant mice; assay type: in vivo; conditions: gavage 25 mg/kg, control Nec-1s 50 mg/kg
Text: The adopted biological test scheme was: RIPK1^K612R/K612R mutant mice were used as model mice to test the effect of representative compound QY-10-40 or QY-13-19 on spontaneous intestinal inflammation.
K612R mutation leads to decreased in intracellular RIPK1 level but abnormal activation, making it sensitive to programmed necrosis and caspase-1 activation, and responding to TLRs signaling. RIPK1^K612R/K612R mice will appear responses such as age-dependent reduced RIPK1 expression and abnormal activation, spontaneous intestinal inflammation and splenomegaly.
Methods: The compounds to be tested were dissolved in 0.5% carboxymethyl cellulose according to the required concentration one day in advance, and sonicated overnight. Mice were gavaged in a volume of 0.1 ml/10 g body weight. Body weight was measured three times a week, and samples were collected at the end of the experiment. The effect of the compounds was calculated using Prism Graphpad statistical software.

[4] = stimulated with TNFα + SM164, read-out: EC50 (μM) L929 cells (mouse) TNFα + SM164
[5] = stimulated with TNFα alone, read-out: EC50 (μM) L929 cells (mouse) TNFα
[6] = 14 h, stimulated with TNFα + SM164, read-out: EC50 (μM) FADD−/− Jurkat cells (human) TNFα + SM164
[7] = stimulated with TNFα alone, read-out: EC50 (μM) FADD−/− Jurkat cells (human) TNFα

Structure (SMILES)	EC50 (L929 cells; [4])	EC50 (L929 cells; [5])	inhibition of programmed necrosis (in words) (L929 cells; mouse-derived L929 cells)	EC50 (FADD−/− Jurkat cells; [6])	EC50 (FADD−/− Jurkat cells; [7])	activity of inhibition of programmed necrosis compared with GSK2982772 (FADD−/− Jurkat cells)	inhibition of programmed necrosis [1]	inhibition of programmed necrosis [2]	effect on body weight and spleen coefficient [3]
COc1cc2ncn(-c3ccc(CNC(=O)c4cnn(C)c4Cc4ccccc4)cc3)c2cc1OC [QY-11-76]	0.432 nM	0.0598 nM	excellently inhibit the occurrence of programmed necrosis	0.05 nM	0.0243 nM	stronger activity	can significantly inhibit occurrence of programmed necrosis	can effectively inhibit the occurrence of programmed necrosis	–
Cn1ncc(C(=O)NCc2ccc(-n3cnc4c(N)nccc43)cc2)c1Cc1ccccc1 [QY-11-77]	0.63 nM	1.17 nM	–	0.838 nM	0.012 nM	–	can significantly inhibit occurrence of programmed necrosis	can effectively inhibit the occurrence of programmed necrosis	–
Cn1nnc(C(=O)NCc2ccc(-n3cnc4c(N)ncnc43)cc2)c1Cc1ccccc1 [QY-13-19, N-(4-(6-amino-9H-purin-9-yl)benzyl)-5-benzyl-1-methyl-1H-1,2,3-triazole-4-carboxamide]	3.09 nM	1.46 nM	–	0.516 nM	0.0557 nM	stronger activity	–	–	can inhibit the effect of the digestive system inflammation

From patent US20230331707A1, “PROGRAMMED CELL NECROSIS INHIBITOR, PREPARATION METHOD THEREFOR, AND USE THEREOF” (Shanghai Institute of Organic Chemistry, Chinese Academy of …, priority 2020, published 2023)
